# Results from patent US20090221615A1, “COMBINATION ANTI-CANCER AGENTS” (priority 2008, published 2009).
# Assays:
# [1] = tested on: human H460 non-small cell lung carcinoma cells; experiment: H460 non-small cell lung carcinoma xenograft tumor growth in CD-1 nude mice; type: in vivo; conditions: 28 days, 7 treatments once every 4 days, Pemetrexed i.p. 200 mg/kg, Lucanthone oral 80 mg/kg
# Procedure: (§1) Methods: Groups of CD-1 nude mice were xenografted subcutaneously with human H460 non-small cell lung carcinoma cells. Treatments were initiated when tumor growth reached approximately 130 mm^3. Treatments were administered 7 times at frequency of once every 4 days and included vehicles, Pemetrexed given intraperitoneally at 200 mg/kg, Lucanthone given orally at 80 mg/kg, and the combinations of Pemetrexed and Lucanthone at the same doses. The tumor growths and body weight change were followed for 28 days.
# [2] = Body weight change in the H460 xenograft study; type: in vivo, CD-1 nude mice; conditions: 28-day period; Pemetrexed i.p. 200 mg/kg, Lucanthone oral 80 mg/kg, once every 4 days x7; vehicles −2.9%
# Procedure: as §1
smiles,measurement,setting,value
"Nc1nc2[nH]cc(CCc3ccc(C(=O)N[C@@H](CCC(=O)O)C(=O)O)cc3)c2c(=O)[nH]1 [Pemetrexed, N-[4-[2-(2-amino-4,7-dihydro-4-oxo-1H-pyrrolo[2,3-d]pyrimidin-5-yl)ethyl]-benzoyl]-L-glutamic acid]",growth inhibition compared to the vehicle-treated group,[1],33%
same,fold of increases of the tumor volume,[1]; vehicles 42,28 fold
same,body weight changes excluding the tumor weights,[2],−0.9%
